{"source": "patent US9714239B2", "about": "“N-phenyl-lactam derivatives capable of stimulating neurogenesis and their use in the treatment of neurological disorders” (Hoffmann-La Roche Inc., priority 2014, dated 2017)", "data": [{"tested_on": "human embryonic stem cell derived neural stem cells (NSCs)", "assay": "Neurogenesis assay: neural stem cell proliferation assay", "conditions": "96 h, compound concentration at which 150% activity of control (100%) is reached, increase in cells based on ATP levels (CellTiterGlo), 4 days incubation, dose response 8 μM to 8 nM", "protocol": "Neural Stem Cell Proliferation Assay\nNeurogenic properties of small molecules are determined based on the proliferation of human embryonic stem cell derived neural stem cells (NSCs) which were derived via a dual smad inhibition as previously described (Chambers, S. M., et al., Highly efficient neural conversion of human ES and iPS cells by dual inhibition of SMAD signaling, Nature biotechnology, 2009 27(3): p. 275-80.).\nCompounds response is measured by the increase in cells based on ATP levels (Promega:CellTiterGlo®) after an incubation period of 4 days. NSCs are thawed and expanded over 3 passages. On the 14th day, NSCs are seeded in Polyornithin/Laminin coated 384 well plates at a cell density of 21,000 cells/cm^2 in a media volume of 38 μl.\n4 hours after cell seeding, compound solutions are added at a volume of 2 μl. Stock solutions of the compounds (water, 5% DMSO) are diluted to obtain a dose response (11 points, dilution factor is 2), ranging from 8 μM to 8 nM. Controls are run to consistently determine the neurogenic properties of the cells:\nNegative (neutral) control is cell culture Media (final DMSO concentration: 0.25%).\n1. cell culture Media+100 ng/ml FGF2 (final DMSO concentration: 0.1%)\n2. cell culture Media+20 ng/ml EGF (final DMSO concentration: 0.1%)\n3. cell culture Media+100 ng/ml Wnt3a (final DMSO concentration: 0.1%)\nAfter 4 days incubation at 37° C., 5% CO2, the amount of ATP per well is quantified. The ATP concentration is proportional to the cell number. ATP is quantified by using the Promega CellTiterGlo® kit. The CellTiterGlo® reagents contain a cell lysis buffer, a thermo stable luciferase (UltraGlo™ recombinant luciferase), magnesium and luciferin. Luciferin reacts with ATP producing oxyluciferin, AMP and light. The luminescence signal is proportional to the ATP content.\nThe value of negative (neutral) control is determined for each assay plate by taking the average of 16 negative control wells. The neurogenic compound response is calculated for each compound as (compound/Negative Control)*100. The values of EC150 from the dose response curve are determined for each test compound. The EC150 is the compound concentration at which 150% activity of control (100%) is reached.", "units": {"EC (150% of control)": "µM"}, "values": [{"smiles": "COc1cc(N2CCC(Cc3ccccc3Cl)C2=O)ccc1-c1cn[nH]c1", "note": "(stereo not drawn) [Example 37, 3-[(2-Chlorophenyl)methyl]-1-[3-methoxy-4-(1H-pyrazol-4-yl)phenyl]pyrrolidin-2-one]", "EC (150% of control)": 1.13}, {"smiles": "COc1cc(N2CCC(c3cccc(Cl)c3)C2=O)ccc1-c1cnco1", "note": "(stereo not drawn) [Example 38, 3-(3-Chlorophenyl)-1-[3-methoxy-4-(1,3-oxazol-5-yl)phenyl]pyrrolidin-2-one]", "EC (150% of control)": 1.35}, {"smiles": "COc1cccc(CN2CCN(c3ccc(-c4cn[nH]c4)cc3OC)C2=O)c1", "note": "[Example 39, 1-[(3-Methoxyphenyl)methyl]-3-[2-methoxy-4-(1H-pyrazol-4-yl)phenyl]imidazolidin-2-one]", "EC (150% of control)": 0.393}, {"smiles": "COc1cccc(CC2CCN(c3ccc(-c4cn[nH]c4)c(OC)c3)C2=O)c1", "note": "(stereo not drawn) [Example 40, 3-[(3-Methoxyphenyl)methyl]-1-[3-methoxy-4-(1H-pyrazol-4-yl)phenyl]pyrrolidin-2-one]", "EC (150% of control)": 0.334}, {"smiles": "COc1cc(N2CCC(c3ccccc3OC)C2=O)ccc1-c1cnco1", "note": "(stereo not drawn) [Example 41, 1-[3-Methoxy-4-(1,3-oxazol-5-yl)phenyl]-3-(2-methoxyphenyl)pyrrolidin-2-one]", "EC (150% of control)": 2.91}, {"smiles": "COc1ccccc1CN1CCN(c2ccc(-c3cn[nH]c3)c(OC)c2)C1=O", "note": "[Example 42, 1-[(2-Methoxyphenyl)methyl]-3-[3-methoxy-4-(1H-pyrazol-4-yl)phenyl]imidazolidin-2-one]", "EC (150% of control)": 0.308}, {"smiles": "COc1cc(N2CCN(CCc3ccccc3)C2=O)ccc1-c1cn[nH]c1", "note": "[Example 43, 1-[3-Methoxy-4-(1H-pyrazol-4-yl)phenyl]-3-(2-phenylethyl)imidazolidin-2-one]", "EC (150% of control)": 0.309}, {"smiles": "COc1ccccc1CCN1CCN(c2ccc(-c3cn[nH]c3)c(OC)c2)C1=O", "note": "[Example 44, 1-[2-(2-Methoxyphenyl)ethyl]-3-[3-methoxy-4-(1H-pyrazol-4-yl)phenyl]imidazolidin-2-one]", "EC (150% of control)": 1.98}, {"smiles": "COc1cc(N2CCN(CCc3ccccc3Cl)C2=O)ccc1-c1cn[nH]c1", "note": "[Example 45, 1-[2-(2-Chlorophenyl)ethyl]-3-[3-methoxy-4-(1H-pyrazol-4-yl)phenyl]imidazolidin-2-one]", "EC (150% of control)": 0.136}, {"smiles": "COc1cccc(CN2CCN(c3ccc(-c4cn[nH]c4)cc3Cl)C2=O)c1", "note": "[Example 46, 1-[2-Chloro-4-(1H-pyrazol-4-yl)phenyl]-3-[(3-methoxyphenyl)methyl]imidazolidin-2-one]", "EC (150% of control)": 1.83}, {"smiles": "COc1cc(N2CCN(Cc3ccc(F)cc3)C2=O)ccc1-c1cn[nH]c1", "note": "[Example 47, 1-[(4-Fluorophenyl)methyl]-3-[3-methoxy-4-(1H-pyrazol-4-yl)phenyl]imidazolidin-2-one]", "EC (150% of control)": 0.768}, {"smiles": "COc1cc(N2CCN(Cc3cccnc3)C2=O)ccc1-c1cn[nH]c1", "note": "[Example 48, 1-[3-Methoxy-4-(1H-pyrazol-4-yl)phenyl]-3-(3-pyridylmethyl)imidazolidin-2-one]", "EC (150% of control)": 0.119}, {"smiles": "COc1cc(N2CCN(CCc3cccc(Cl)c3)C2=O)ccc1-c1cn[nH]c1", "note": "[Example 49, 1-[2-(3-Chlorophenyl)ethyl]-3-[3-methoxy-4-(1H-pyrazol-4-yl)phenyl]imidazolidin-2-one]", "EC (150% of control)": 1.73}, {"smiles": "COc1cc(N2CCN(CCc3ccc(Cl)cc3)C2=O)ccc1-c1cn[nH]c1", "note": "[Example 50, 1-[2-(4-Chlorophenyl)ethyl]-3-[3-methoxy-4-(1H-pyrazol-4-yl)phenyl]imidazolidin-2-one]", "EC (150% of control)": 2.01}, {"smiles": "CCC(c1ccccc1)N1CCN(c2ccc(-c3cn[nH]c3)c(OC)c2)C1=O", "note": "(stereo not drawn) [Example 51, 1-[3-Methoxy-4-(1H-pyrazol-4-yl)phenyl]-3-(1-phenylpropyl)imidazolidin-2-one]", "EC (150% of control)": 0.594}, {"smiles": "COc1cccc(C2CCN(c3ccc(-c4cnco4)cc3)C2=O)c1", "note": "(stereo not drawn) [Example 52, 3-(3-Methoxyphenyl)-1-[4-(1,3-oxazol-5-yl)phenyl]pyrrolidin-2-one]", "EC (150% of control)": 0.517}, {"smiles": "O=C1C(c2ccccc2)CCN1c1ccc(-c2cnco2)cc1", "note": "(stereo not drawn) [Example 53, 1-[4-(1,3-Oxazol-5-yl)phenyl]-3-phenylpyrrolidin-2-one]", "EC (150% of control)": 2.21}, {"smiles": "COc1cc(N2CCN(Cc3ccccc3C(F)(F)F)C2=O)ccc1-c1ccncc1", "note": "[Example 54, 1-[3-Methoxy-4-(4-pyridyl)phenyl]-3-[[2-(trifluoromethyl)phenyl]methyl]imidazolidin-2-one]", "EC (150% of control)": 0.0351}, {"smiles": "COc1cc(N2CCN(Cc3ccncc3)C2=O)ccc1-c1ccncc1", "note": "[Example 55, 1-[3-Methoxy-4-(4-pyridyl)phenyl]-3-(4-pyridylmethyl)imidazolidin-2-one]", "EC (150% of control)": 0.377}, {"smiles": "COc1cc(N2CCC(c3cccc(C(F)(F)F)c3)C2=O)ccc1-c1cnco1", "note": "(stereo not drawn) [Example 56, 1-[3-Methoxy-4-(1,3-oxazol-5-yl)phenyl]-3-[3-(trifluoromethyl)phenyl]pyrrolidin-2-one]", "EC (150% of control)": 1.86}, {"smiles": "O=C1C(c2ccccc2F)CCN1c1ccc(-c2cnco2)cc1", "note": "(stereo not drawn) [Example 57, 3-(2-Fluorophenyl)-1-[4-(1,3-oxazol-5-yl)phenyl]pyrrolidin-2-one]", "EC (150% of control)": 0.525}, {"smiles": "COc1cc(N2CCC(c3ccccc3F)C2=O)ccc1-c1cnco1", "note": "(stereo not drawn) [Example 58, 3-(2-Fluorophenyl)-1-[3-methoxy-4-(1,3-oxazol-5-yl)phenyl]pyrrolidin-2-one]", "EC (150% of control)": 0.23}, {"smiles": "COc1cccc(CN2CCN(c3ccc(-c4cnco4)cc3)C2=O)c1", "note": "[Example 59, 1-[(3-Methoxyphenyl)methyl]-3-[4-(1,3-oxazol-5-yl)phenyl]imidazolidin-2-one]", "EC (150% of control)": 0.122}, {"smiles": "O=C1C(c2cccc(F)c2)CCN1c1ccc(-c2cnco2)cc1", "note": "(stereo not drawn) [Example 60, 3-(3-Fluorophenyl)-1-[4-(1,3-oxazol-5-yl)phenyl]pyrrolidin-2-one]", "EC (150% of control)": 0.605}, {"smiles": "COc1cc(N2CCC(c3cccc(F)c3)C2=O)ccc1-c1cnco1", "note": "(stereo not drawn) [Example 61, 3-(3-Fluorophenyl)-1-[3-methoxy-4-(1,3-oxazol-5-yl)phenyl]pyrrolidin-2-one]", "EC (150% of control)": 0.262}, {"smiles": "COc1cc(N2CCN(Cc3ccncc3)C2=O)ccc1-c1cn[nH]c1", "note": "[Example 62, 1-[3-Methoxy-4-(1H-pyrazol-4-yl)phenyl]-3-(4-pyridylmethyl)imidazolidin-2-one]", "EC (150% of control)": 0.042}, {"smiles": "COc1cc(N2CCN(Cc3ccccn3)C2=O)ccc1-c1cn[nH]c1", "note": "[Example 63, 1-[3-Methoxy-4-(1H-pyrazol-4-yl)phenyl]-3-(2-pyridylmethyl)imidazolidin-2-one]", "EC (150% of control)": 0.255}, {"smiles": "COc1cc(N2CCN(CC(C)c3ccccc3)C2=O)ccc1-c1cn[nH]c1", "note": "(stereo not drawn) [Example 64, 1-[3-Methoxy-4-(1H-pyrazol-4-yl)phenyl]-3-(2-phenylpropyl)imidazolidin-2-one]", "EC (150% of control)": 0.387}, {"smiles": "COc1cc(N2CCN(Cc3cccc(C)c3)C2=O)ccc1-c1ccncc1", "note": "[Example 65, 1-[3-Methoxy-4-(4-pyridyl)phenyl]-3-(m-tolylmethyl)imidazolidin-2-one]", "EC (150% of control)": 0.0298}, {"smiles": "COc1cc(N2CCN(Cc3cccnc3)C2=O)ccc1-c1ccncc1", "note": "[Example 66, 1-[3-Methoxy-4-(4-pyridyl)phenyl]-3-(3-pyridylmethyl)imidazolidin-2-one]", "EC (150% of control)": 0.4}, {"smiles": "COc1ccccc1CN1CCN(c2ccc(-c3cnco3)c(OC)c2)C1=O", "note": "[Example 67, 1-[3-Methoxy-4-(1,3-oxazol-5-yl)phenyl]-3-[(2-methoxyphenyl)methyl]imidazolidin-2-one]", "EC (150% of control)": 0.702}, {"smiles": "COc1cccc(CN2CCN(c3ccc(-c4cnco4)c(OC)c3)C2=O)c1", "note": "[Example 68, 1-[3-Methoxy-4-(1,3-oxazol-5-yl)phenyl]-3-[(3-methoxyphenyl)methyl]imidazolidin-2-one]", "EC (150% of control)": 0.316}, {"smiles": "COc1cc(N2CCN(Cc3ccccc3Cl)C2=O)ccc1-c1cnco1", "note": "[Example 69, 1-[(2-Chlorophenyl)methyl]-3-[3-methoxy-4-(1,3-oxazol-5-yl)phenyl]imidazolidin-2-one]", "EC (150% of control)": 2.24}, {"smiles": "COc1cccc(C2CCN(c3ccc(-c4ccncc4)c(OC)c3)C2=O)c1", "note": "(stereo not drawn) [Example 70, 3-(3-Methoxyphenyl)-1-(3-methoxy-4-pyridin-4-ylphenyl)pyrrolidin-2-one]", "EC (150% of control)": 0.0613}, {"smiles": "COc1cccc(C2CCN(c3ccc(-c4ccncc4)cc3)C2=O)c1", "note": "(stereo not drawn) [Example 71, 3-(3-Methoxyphenyl)-1-(4-pyridin-4-ylphenyl)pyrrolidin-2-one]", "EC (150% of control)": 0.0155}, {"smiles": "O=C1N(Cc2cccc(F)c2)CCN1c1ccc(-c2cnco2)cc1", "note": "[Example 72, 1-[(3-Fluorophenyl)methyl]-3-[4-(1,3-oxazol-5-yl)phenyl]imidazolidin-2-one]", "EC (150% of control)": 1.07}]}]}
